Assays:
pBR322 plasmid DNA = test: plasmid cleavage assay; assay type: biochemical; parameters: key to DNA cleavage: no impact (0); weak impact (+); strong impact (++); details: for DNA cleavage: summary grade; for linearized plasmid (double-strand breaks) / open circular DNA (single-strand breaks): pH 7.1, 20 h, 37 °C
Text: We pursued two different strategies to assess the potential of the pentathiepins to damage DNA: a simple plasmid cleavage assay and the cellular Comet assay. The former is a straightforward method to investigate whether a test compound can cleave DNA in vitro, and if so, whether single and/or double strand breaks are created, while the latter is an ex vivo assay that measures DNA fragmentation in single cells. In the plasmid cleavage assay, a single strand break would relax the supercoiled plasmid (scDNA) and lead to the detection of open circular DNA (ocDNA), whereas a double-strand break would linearize the plasmid (linDNA). An agarose gel electrophoresis enables the discrimination of the distinct plasmid conformations due to their specific electrophoretic mobilities (Figure 11a).
This assay was used to assess the cleaving ability of the pentathiepins in a cell-free setting and on the basis of procedures described in [54]. Plasmids occur in three different conformations with distinct electrophoretic mobilities that can finally be separated visualized via agarose gel electrophoresis. For each condition, 0.3 µg of pBR322 plasmid DNA was incubated with either the pentathiepin or a corresponding amount of the solvent acetonitrile. Incubations were performed in sodium phosphate buffer (50 mM) with or without GSH for 20 h at 37 °C in a water bath. Afterwards, the samples were separated by using an agarose gel (1%) run at 80 V for 2 h. Resulting bands were stained with GelRed® (Sigma-Aldrich, Taufkirchen, Germany),) and imaged and quantified via Gel-Doc EZ Imager and Image Lab (Bio-Rad, Feldkirchen, Germany), respectively. To assess the cleavage ability of the pentathiepins, we incubated the plasmid with either 5 or 25 µM of compound at a fixed concentration of GSH (2 mM). In another experiment, the amount of GSH varied between 1 µM and 10 mM, while the pentathiepin concentration was 5 µM. In contrast to the aforementioned settings where a buffer pH of 7.1 was applied, in a third attempt, the influence of different pH on the cleavage outcome was analyzed by adjusting the buffer pH to 5.1, 6.1, or 8.1 while using fixed concentrations of both test compound and GSH. Another attempt to gain insights into the cleaving mechanism was made by adding either catalase, superoxide dismutase (100 µg/mL each), or both to 5 µM pentathiepin with 2 mM GSH.

[1] = tested on: HAP-1, HAP-1.KO.GPx1, and Siso; test: alkaline Comet assay (summary); assay type: cell-based, human; parameters: key: no impact (0); weak impact (+); strong impact (++); details: summary grade
Text: Next, the potential of the pentathiepins 1–6 to damage nuclear DNA was investigated in the cell lines HAP-1, HAP-1.KO.GPx1, and Siso, with different expression levels of GPx1 and CAT (see Figure 7), by Comet Assay (Figure 12) with representative images in the Supplementary Materials (Figure S48).
With this assay, the intensity of DNA damage can be assessed on the level of a single cell, in case of the alkaline version detecting both single and double strand breaks as well as alkali-labile sites. The method presented here is an adaptation of the protocol published by Olive and Banath and based on the distinct electrophoretic mobility of damaged and intact genomic DNA. The latter has a low mobility; does thus not migrate in the electric field; and remains in a nucleoid shape after lysis, referred to as the comet head. In contrast, when strand breaks are created, free charged ends emerge and increase the electrophoretic mobility, prompting DNA segments to drift away from the comet head, thereby forming the so-called comet tail. As descriptor of still intact genomic DNA, the percentage of DNA in the comet head was selected. Per condition, 50,000 cells of either Siso, HAP-1, or HAP-1.KO.GPx1 were diluted in 1 mL of PBS and subsequently treated with either a 1% DMF aqueous solution as negative control, 20 µM of H2O2 as positive control, or 25 µM of pentathiepin for 15 min on ice to impair intracellular DNA repair mechanisms. Afterwards, 400 µL of the cell suspension was blended with 1.2 mL of a 1% low melting point agarose solution (40 °C) and smoothly distributed on agarose-precoated glass slides. Polymerization was finished after 3 min at RT, and the slides were horizontally submerged in alkaline lysis buffer (1.2 M NaCl, 0.1% N-lauryl-sarcosinate, 0.1 M Na-EDTA, 0.26 M NaOH) before storing them at 4 °C overnight. The slides were then rinsed three times in rinse/electrophoresis buffer (0.002 M Na-EDTA, 0.03 M NaOH) before electrophoretic separation was performed for 25 min at 0.6 V/cm. A neutralization step by adding distilled water was followed by staining the slides with 250 µL of an aqueous 10 µg/mL PI solution for 20 min. For visualization and image capturing, a DMi8 fluorescent microscope and LASX software (Leica Microsystems, Wetzlar, Germany) were used, and the comets scored with the help of CometScore2.0 (rexhoover.com). Per condition and replicate, at least 100 comets were analyzed to calculate a mean level of damage.

SMILES: CCOc1c2c(c3cnc4[nH]c(-c5ccc(OC)cc5)cc4n13)SSSSS2 [Compound 1, 11-Ethoxy-2-(4-methoxyphenyl)-3H-[1,2,3,4,5]pentathiepino[6′,7′:3,4]pyrrolo[1,2-a]pyrrolo[2,3-e]pyrazine]
- influence of buffer pH on plasmid cleavage (pBR322 plasmid DNA; 5 µM, 2 mM GSH, pH 5.1 to 8.1): a trend favoring lower pH for higher cleavage effects was observed but was not proven to be statistically significant
- DNA cleavage (pBR322 plasmid DNA): +
- Comet formation [1]: +

SMILES: CCOc1c2c(c3ccc(C(=O)N4CCCCC4)cn13)SSSSS2 [Compound 2, (6-Ethoxy-[1,2,3,4,5]pentathiepino[6,7-a]indolizin-9-yl)(piperidinyl)methanone]
- linearized plasmid (double-strand breaks) (pBR322 plasmid DNA; 25 µM, 2 mM GSH): about 4%
- DNA cleavage (pBR322 plasmid DNA): ++
- Comet formation [1]: +

SMILES: CCOc1c2c(c3ccc(C(=O)N4CCOCC4)cn13)SSSSS2 [Compound 3, (6-Ethoxy-[1,2,3,4,5]pentathiepino[6,7-a]indolizin-9-yl)(morpholino)methanone]
- fraction of damaged DNA (pBR322 plasmid DNA; 5 µM, 2 mM GSH, no enzyme added (CAT/SOD experiment)): about 43%
- open circular DNA (pBR322 plasmid DNA; 5 µM, 2 mM GSH, pH 5.1): 45%
- open circular DNA (pBR322 plasmid DNA; 5 µM, 2 mM GSH, pH 6.1): 49%
- open circular DNA (pBR322 plasmid DNA; 5 µM, 2 mM GSH, pH 8.1): 28%
- amount of broken plasmid (pBR322 plasmid DNA; 5 µM, 2 mM GSH, plus 100 µg/mL CAT): 19%
- amount of broken plasmid (pBR322 plasmid DNA; 5 µM, 2 mM GSH, plus 100 µg/mL SOD): 29%
- amount of broken plasmid (pBR322 plasmid DNA; 5 µM, 2 mM GSH, plus CAT and SOD): 19%
- linearized plasmid (double-strand breaks) (pBR322 plasmid DNA; 25 µM, 2 mM GSH): about 4%
- open circular DNA (single-strand breaks) (pBR322 plasmid DNA; 25 µM, 2 mM GSH): about 75%
- DNA cleavage (pBR322 plasmid DNA): ++
- Comet formation [1]: ++

SMILES: CCOc1c2c(c3ccc(C(=O)N(CC)CC)cn13)SSSSS2 [Compound 4, 6-Ethoxy-N,N’-diethyl-[1,2,3,4,5]pentathiepino[6,7-a]indolizine-9-carboxamide]
- open circular DNA (single-strand breaks) (pBR322 plasmid DNA; 5 µM, 2 mM GSH): roughly 55%
- linearized plasmid (double-strand breaks) (pBR322 plasmid DNA; 25 µM, 2 mM GSH): about 4%
- open circular DNA (single-strand breaks) (pBR322 plasmid DNA; 25 µM, 2 mM GSH): about 75%
- DNA cleavage (pBR322 plasmid DNA): ++
- Comet formation [1]: ++

SMILES: CCOc1c2c(c3ccc(C(=O)N4CCN(C(=O)c5ccc(F)cc5)CC4)cn13)SSSSS2 [Compound 5, (6-Ethoxy-[1,2,3,4,5]pentathiepino[6,7-a]indolizin-9-yl)(4-(4-fluorobenzoyl)piperazinyl)methanone]
- open circular DNA (single-strand breaks) (pBR322 plasmid DNA; 5 µM, 2 mM GSH): roughly 55%
- linearized plasmid (double-strand breaks) (pBR322 plasmid DNA; 25 µM, 2 mM GSH): about 4%
- open circular DNA (single-strand breaks) (pBR322 plasmid DNA; 25 µM, 2 mM GSH): about 75%
- DNA cleavage (pBR322 plasmid DNA): ++
- Comet formation [1]: ++

SMILES: CCOc1c2c(c3ccc(C(=O)N4CCN(S(=O)(=O)c5ccc(C)cc5)CC4)cn13)SSSSS2 [Compound 6, (6-Ethoxy-[1,2,3,4,5]pentathiepino[6,7-a]indolizin-9-yl)(4-tosylpiperazinyl)methanone]
- DNA cleavage (pBR322 plasmid DNA): +
- Comet formation [1]: +

From paper PMC8305076, “Comprehensive Evaluation of Biological Effects of Pentathiepins on Various Human Cancer Cell Lines and Insights into Their Mode of Action” (International Journal of Molecular Sciences, 2021)
